Data reported in patent US8597645B2, “Cancer treatment with endothelin receptor antagonists” (New York University, priority 1999, dated 2013).
Where two headings read alike, the source gives them in different places. Where a SMILES comes first, the peptide text is derived from it.

Assays:
isolated vascular strips = conditions: read-out: EC50 as contractile agent; cited from earlier work
[1] = tested on: β-catenin and p120CTN protein levels in melanocytes and melanoma cells; assay: Down-regulation of β-catenin and p120CTN by ET-1, immunoblot of crude membrane fractions; assay type: cell-based, human
Procedure: To analyze membrane-associated catenin proteins, crude membrane fractions were prepared as follows: cell pellets were resuspended in 6 pellet volumes of buffer A (10 mM HEPES pH 7.5, 1.5 mM MgCl2, 10 mM KCl, 10 mM NaF, 0.2 mM sodium vanadate, 1× protease inhibitors-Boehringer complete) and allowed to swell for 10 min. Cell membranes were disrupted by vortexing for 10 s and membranes pelleted by centrifugation for 10 s. Supernatants containing cytoplasmic proteins were discarded. Membrane pellets were solubilized in RIPA buffer as described above and snap frozen on dry ice. 0.5 ug and 2.5 ug of protein lystes were used to examine levels of β-catenin and p120^CTN proteins respectively. Antibodies: anti-β-catenin and anti-p120^CTN (Transduction labs).
The catenins are cytoplasmic proteins that bind E-cadherin and are critical for E-cadherin function in cellular adhesion. J. M. Daniel, et al., Bloessays, 19: 883-91 (1997). Considering the importance of the catenins in E-cadherin function, the effect of ET-1 stimulation upon the levels of these proteins was studied. In both melanocytes and melanoma cells, ET-1 stimulation decreased β-catenin protein levels and increased its electrophoretic mobility (FIG. 2A). The kinetics of this response correlated well with those of E-cadherin down-regulation. BQ788, a selective ETB antagonist, blocked ET-1 mediated down-regulation of β-catenin (FIG. 2B).

[2] = tested on: caspase-8, caspases-3 and 7 in FM2030 and SKMEL28 cells; assay: Caspase activation by ET-1, immunoblot of crude cytoplasmic extracts; assay type: cell-based, human
Procedure: (§1) All caspase inhibitors contained a 16 amino-acid signal peptide derived from Kaposi Fibroblast Growth Factor to confer cell permeability (Calbiochem). Inhibitors were added to cells 34 hours post ET-1 stimulation and cells harvested at 40 hours. Crude cytoplasmic fractions were prepared as described for FIG. 2, except that supernatants containing cytoplasmic proteins were transferred to new tubes, supplemented with 0.11 volumes of buffer B (0.3M HEPES pH 7.9, 1.4M KCl, 0.03M MgCl2) and clarified by centrifugation. 10 ug of protein per sample was analyzed for caspase activation. Antibodies: Anti-caspase-8 antibody (UBI), Anti-caspase-3 and 7 (Transduction labs). Super Signal West Femto Maximum Sensitivity Substrate (PIERCE) was used for chemiluminescent detection of caspase proteins. Membranes were initially developed in a 1:5 dilution of the reagent made in H2O. If necessary, blots were briefly rinsed in TBS (10 mM Tris pH 8.0, 150 mM NaCl) and redeveloped with undiluted reagent for visualization of small fragments.
To determine whether caspase activation played a role in down-regulation of E-cadherin by ET-1, the assay was repeated in the presence of cell permeable inhibitors of a variety of different caspases (FIG. 3A). Strikingly, inhibitors containing the sequences IETD (inhibition of caspase-8) (SEQ ID NO:1) and DEVD (inhibition of caspases-3, 7, 8) (SEQ ID NO:2) were able to block down-regulation of E-cadherin by ET-1. The ‘DEVD’ (SEQ ID NO:2) inhibitor required a 10 fold higher concentration than the ‘IETD’ (SEQ ID NO:1) inhibitor in order to be effective (FIG. 3A. lower panel). Inhibitors specific for caspases 1, 4, 5, 6, 9 and 10 were without effect. […] Timepoints of maximal E-cadherin down-regulation coincided with the appearance of catalytically active caspase-8 subfragments (FIG. 3C, lower panel). Treatment of cells with a cell permeable inhibitor of caspase-8 prevented its proteolytic processing providing further evidence that caspase-8 activation is required for down-regulation of E-cadherin, β-catenin and p120^CTN by ET-1.

[3] = tested on: E-cadherin protein levels in melanocytes (FM2030) and melanoma cells (SKMEL28); assay: Down-regulation of E-cadherin by ET-1, immunoblot analysis of lysates; assay type: cell-based, human; conditions: for blocking of E-cadherin down-regulation by ET-1: antagonist 100 nM added one hour before 10 nM ET-1, 40 hours
Procedure: A375, WM-266-4 and WM-1 15 melanoma cells were purchased from the ATCC. Culture conditions were as described in I. M. Shih, et al., Am. J. Pathol., 145:837-45 (1994). Two weeks prior to ET-stimulation, water soluble 12,13-phorbol dibutyrate was substituted for phorbol 12-myristate, 13-acetate in melanocyte medium. ET stimulations of melanocytes were carried out in phorbol-free medium. Cell pellets were incubated for 15 minutes in 6 pellet volumes of RIPA buffer (1% NP4O, 0.5% deoxycholic acid, 10 mM Tris pH 8.3, 150 mM NaCl, 50 mM NaF, 0.2 mM sodium vanadate, 1× protease inhibitors-Boehringer complete). After centrifugation, lysates were quantitated using protein assay reagent (Biorad). 2.5 ug of protein per sample were subjected to SDS-PAGE unless samples were prepared from A375, WM-266-4 or WM-1 15 cells in which case 100 ug protein per sample was used. BQ123 and BQ788 at 100 nM were added to cells one hour before ET-1 addition. Antibodies: anti-E-cadherin (Transduction labs), anti-mouse IgG-HRP (Santa-Cruz). ECL detection system (Amersham). ET-1, ET-3, BQ123, BQ788 (Peninsula labs).
Human neonatal melanocytes (FM2030) and human melanoma cells (SKMEL28) were stimulated with 10 nM ET-1 over a 40 hour time course and protein lysates were examined for E-cadherin protein levels by immunoblot analysis (FIG. 1A). […] E-cadherin protein levels returned to baseline by 72 hours. A delayed and prolonged response to ET-1 has also been reported in other cell types. R. Marsault, et al., Biochem. Biophys. Res. Commun., 179:1408-3 (1991). […] In addition to E-cadherin, expression of the adhesion molecules ICAM 1, CD44 and N-cadherin is altered during melanoma development. M. Y. Hsu, et al., J. Investig. Dermatol. Symp. Proc., 1:188-94 (1996); S. Vermeulen, et al., Pathol. Res. Pract, 192:694-707 (1996).
There are two well characterized ET-1 receptors, an A subtype (ETA) and a B subtype (ETB). A. G. Baynash, et al., Cell, 79:1277 85 (1994). Both subtypes are expressed by melanocytes while most melanoma cells express only ETB. ET-1 binds with equal affinity to both receptor subtypes. G. Imokawa, et al., Biochem. J., 314:305-12 (1996). To determine which subtype mediated the observed response, the assay was repeated in the presence of a selective ETA antagonist (BQ123) and a selective ETB antagonist (BQ788).

[4] = tested on: melanocytes and melanoma cells; assay: Immunofluorescence: subcellular localization of E-cadherin and β-catenin after ET-1; assay type: cell-based, human; conditions: 10 nM ET-1, 96 hours
Procedure: Cells were seeded onto collagen coated glass chamber slides in medium supplemented with 10 nM ET-1. At 48 hours, medium was aspirated and replaced with fresh ET-1 supplemented medium. At 96 hours, cells were fixed for 10 minutes in 3.7% formaldehyde/1 mM CaCl2/PBS, permeabilized for 10 minutes in 0.2% Triton X-100/PBS and blocked in 1% BSA/PBS for 10 minutes. Staining with E-cadherin and β-catenin antibodies diluted 1:50 in blocking buffer was performed for 45 minutes followed by a 30 minute incubation with goat-anti-mouse IgG-Cy3 (Jackson Immunoresearch labs) diluted 1:200 in blocking buffer. Cells were washed with PBS in between permeabilization and fixation steps and after antibody incubations.

ETB receptors = conditions: cited from earlier work; for inhibition of 125I-labeled ET-1 binding: non cardiovascular tissues: kidney, adrenal gland, cerebellum
ETA receptors = conditions: cited from earlier work; for IC50: read-out: IC50, inhibition of 125I-labeled ET-1 binding
[5] = tested on: caspases (E-cadherin, β-catenin, p120CTN read-out) in SKMEL28 and FM2030 cells; assay: Cell permeable caspase inhibitors on down-regulation of E-cadherin and catenins by ET-1; assay type: cell-based, human; conditions: inhibitors added 34 hours post ET-1, harvested at 40 hours
Procedure: as §1
To determine whether caspase activation played a role in down-regulation of E-cadherin by ET-1, the assay was repeated in the presence of cell permeable inhibitors of a variety of different caspases (FIG. 3A). […]

[6] = ET-1 stimulation, melanocytes and melanoma cells

ET-1: 21 amino-acid peptide secreted by keratinocytes; binds ETA and ETB
EC50 (isolated vascular strips): 0.4 nM
p120CTN protein level and electrophoretic mobility ([1]; ET-1 stimulation): down-regulated and increased the electrophoretic mobility
β-catenin electrophoretic mobility [1, 6]: increased
β-catenin protein levels [1, 6]: decreased
β-catenin mRNA levels ([1]; northern blot analysis): failed to reveal an ET-1 dependent decrease
activation of distal caspases (caspases-3 and 7) ([2]; SKMEL28 and FM2030 cells): failure of ET-1 to activate distal caspases
duration of ET-1 dependent proteolytic processing of caspase-8 ([2]; after ET-1 stimulation): 46 h
time at which ET-1 dependent proteolytic processing of caspase-8 was first detectable ([2]; after ET-1 stimulation): approximately 36 hours
induction of apoptosis ([2]; melanocytes and melanoma cells): failure to induce apoptosis
E-cadherin protein level after ET-1 stimulation ([3]; 10 nM ET-1, by 40 hours, FM2030 and SKMEL28): marked decrease
time at which E-cadherin protein levels returned to baseline ([3]; 10 nM ET-1, FM2030 and SKMEL28): ≤ 72 h
dose response of E-cadherin down-regulation ([3]; 0.5, 1.0, 10 nM ET-1, 40 hours, melanocytes and melanoma cells): dose responsive
protein levels of adhesion molecules ICAM 1, CD44 and N-cadherin ([3]; immunoblot of lysates after ET-1): no effect
E-cadherin mRNA levels ([3]; northern blot analysis): no ET-1 dependent decrease
down-regulation of E-cadherin in additional cell lines ([3]; one additional melanocyte line (CL-NHEM) and 4 additional melanoma lines): down-regulation of E-cadherin was observed in all lines except in A375 and WM 115
E-cadherin staining in melanocytes [4]: loss of concentration of E-cadherin staining at points of cell:cell contact
E-cadherin staining in melanoma cells [4]: markedly decreased intensity of membranous staining
β-catenin staining in melanocytes [4]: loss of concentration of β-catenin at lateral cell borders and at points of cell: cell contact
β-catenin staining in melanoma cells [4]: loss of most of the membranous staining
melanocyte morphology ([4]; bright field micrographs): large nuclei with prominent nucleoli, abundant cytoplasm, polygonal morphology
inhibition of 125I-labeled ET-1 binding (ETB receptors): inhibited to the same extent
potency of inhibition of 125I-labeled ET-1 binding relative to ET-3 (ETA receptors; cardiovascular tissues): forty to seven hundred times more potently

cyclo(D-Glu-L-Ala-allo-D-Ile-L-Leu-D-Trp) [BE-18257B]
IC50 (ETB receptors; tissues in which ETB receptors predominate, read-out: concentration up to which binding is not inhibited): > 100000 nM
IC50 (ETA receptors; aortic smooth muscle): 1400 nM
IC50 (ETA receptors; cultured aortic smooth muscle cells): 500 nM
IC50 (ETA receptors; ventricle membranes): 800 nM

ET-3: ET isopeptide, a selective ETB agonist
down-regulation of E-cadherin by ET-3 ([3]; 10 nM ET-3, 40 hours): potent down-regulator
inhibition of 125I-labeled ET-1 binding (ETB receptors): inhibited to the same extent

IETD
blocking of down-regulation of E-cadherin by ET-1 [5]: able to block

CCCC[C@@H](NC(=O)[C@@H](Cc1cn(C(=O)OC)c2ccccc12)NC(=O)[C@H](CC(C)(C)C)NC(=O)N1[C@H](C)CCC[C@@H]1C)C(=O)O [BQ788]
blocking of ET-1 mediated down-regulation of β-catenin ([1]; ETB antagonist with ET-1): blocked
blocking of E-cadherin down-regulation by ET-1 [3]: blocked

CC(C)C[C@@H]1NC(=O)[C@@H](C(C)C)NC(=O)[C@@H]2CCCN2C(=O)[C@@H](CC(=O)O)NC(=O)[C@@H](Cc2c[nH]c3ccccc23)NC1=O [BQ123, cyclo(D-Asp-Pro-D-Val-Leu-D-Trp)] (HELM PEPTIDE1{L.[dW].[dD].P.[dV]}$PEPTIDE1,PEPTIDE1,1:R1-5:R2$$$V2.0)
blocking of E-cadherin down-regulation by ET-1 [3]: not
